The structures appear in SMILES notation.

A short description of this data set: Agilent ZORBAX 300 SB-C18, 150 × 1 mm, 3.5 µm; A: water + 0.01% heptafluorobutyric acid; B: acetonitrile + 0.01% heptafluorobutyric acid; gradient (min/%B) 0/0 100/90. Particulars: stereoisomer not certain.
Regarding `Cn1c(=S)[nH]c2ccccc21`, the LC retention time amounted to 9.31 min. Consider `COc1ccc(Cc2c(O)n(-c3ccccc3)c(=O)[nH]c2=O)c(OC)c1`, for which the LC retention time is 11.6 min.

Consider `O=C1c2ccccc2-c2nc3ccccc3cc21`, for which the LC retention time is 14.2 min.

For the compound `Cc1cc(C(=O)O)c(C)n1CCc1c[nH]c2ccccc12`, the LC retention time came out at 12.5 min. The value for `CC1=NN(Cc2c[nH]c3ccccc23)C(C)(C)C1` was 9.37 min; that for `Cc1c(N)cccc1N` was 6.51 min. The value for `NC(=O)C1CCCOC1` (stereo not given) was 5.49 min; that for `CN(C)CCOC(c1ccccc1)c1ccccc1` was 10.9 min; that for `CN1CCC(NCc2cccnc2)CC1` was 7.19 min.

`S=c1[nH]c2ccccc2c2c1CCC2`: the LC retention time was found to be 12.1 min. `CCCCCCCCCN`: the LC retention time turned out to be 11 min.

On to `CN(C)CCCN1c2ccccc2Sc2ccccc21`, for which the LC retention time came out at 11.3 min. The value for `Cc1ccc(C(=O)NCc2ccco2)cc1` was 11.7 min. The value for `CNC(C)c1ccccc1` (stereo not given) was 7.92 min; that for `CN1CCOCC1` was 3.96 min. For `CNCC1COCCO1` (stereo not given), the LC retention time came out at 5.78 min. Consider `CC(=O)C=CC=C(C)CCC=C(C)C`, for which the LC retention time was 17.1 min. Take `Nc1nc2c([nH]c(=O)n2C2CC(O)C(CO)O2)c(=O)[nH]1` (stereo not given): the LC retention time turned out to be 6.05 min. Consider `Cc1ccc(N)cc1`, for which the LC retention time was found to be 7.62 min. The value for `NC(=S)NN=Cc1c2ccccc2cc2ccccc12` was 13.7 min; that for `O=c1cccc[nH]1` was 4.79 min. The value for `CSC1=NCCN1` was 5.98 min.

Regarding `C[N+]1(C)CCCCC1`, the LC retention time came out at 5.95 min. The value for `CCN1CCN(Cc2cc(C)cc(C=O)c2C)CC1` was 9.37 min; that for `CC(CCc1ccc(O)cc1)NCCc1ccc(O)c(O)c1` (stereo not given) was 8.94 min. The value for `Cc1nc(C)c(C)nc1C` was 7.72 min; that for `c1ccc(-c2cc3ccccc3[nH]2)cc1` was 15.8 min; that for `CCCCCCN1CNC(=S)NC1` was 9.89 min. On to `Cc1cccc[n+]1CC(=O)c1ccccc1`, for which the LC retention time turned out to be 8.36 min. The value for `Nc1ccc2nccnc2c1` was 7.1 min; that for `Cc1ccc2[nH]c(-c3ccccc3)cc2c1` was 16.8 min; that for `O=C(NN=Cc1cccnc1)c1ccccn1` was 7.9 min. The value for `Cc1cc(C)c2ccc3ccccc3c2n1` was 12.4 min. As to `CN1C(=O)CC(N2CCN(C(=O)CN3CCCC3)CC2)C1=O` (stereo not given), the LC retention time is 7.12 min.

`Oc1ccc(-n2cccc2)cc1`: the LC retention time is 11.5 min.

Consider `O=C(C=Cc1ccccc1)c1cc(O)ccc1O`, for which the LC retention time was 12.5 min. Regarding `CC(C)=NNc1nccc2ccccc12`, the LC retention time was 10.7 min. For the compound `CC(C)[N+]1(C)C2CCC1CC(OC(=O)C(CO)c1ccccc1)C2` (stereo not given), the LC retention time was 9.23 min.

Consider `Cc1nc2ccccc2nc1N=C(N)NC(=O)c1ccccc1`, for which the LC retention time came out at 11.1 min. The value for `CCN(CC)C(=O)N1CCN(c2ccc(N)cc2)CC1` was 8.72 min; that for `N=C(N=C(N)N)N1CCOCC1` was 6.32 min; that for `CCN(CC)CCNC(=O)c1ccccc1NC(=O)Nc1ccccc1` was 9.62 min. As to `CC(=O)C1CCC2C3CC(C)C4=CC(=O)CCC4(C)C3C(O)CC12C` (stereo not given), the LC retention time stood at 14.8 min. Regarding `O=C(O)CC(NCc1ccccc1)C(=O)O` (stereo not given), the LC retention time stood at 6.19 min. On to `O=C(Nc1cccc(C2=NCCN2)c1)Nc1cccc(C2=NCCN2)c1`, for which the LC retention time is 7.98 min. The value for `O=C(NN=Cc1ccc(O)c(O)c1)c1ccc(NC(=O)c2ccccc2)cc1` was 10.2 min; that for `O=C(O)CCc1ccc(-c2ccccc2)[nH]1` was 11.9 min; that for `CN(C)CCCNCCCN(C)C` was 7.49 min. Take `Nc1ccccc1C(=O)NN=Cc1cccc2ccccc12`: the LC retention time was 13.3 min.

Turning to `Cc1nc2ccc(N)cc2nc1C`, the LC retention time is 7.33 min. The value for `CCC(c1ccc(C)cc1)N(NC(=O)C(O)(c1ccc(C)cc1)c1ccc(C)cc1)C(=O)c1ccccc1` (stereo not given) was 18.3 min. The value for `CCCCN=CC1=C(O)CC(c2ccccc2)CC1=O` (stereo not given) was 13.3 min; that for `CN1C(=O)NC(c2ccccc2)C2=C1CN(c1ccc(CC(=O)O)cc1)C2=O` (stereo not given) was 9.56 min; that for `CCNC(=O)C(=O)NCCc1c[nH]c2ccccc12` was 10.8 min. The value for `Cc1[nH]c2ccccc2c1CCN1C(=O)C2CCCCC2C1=O` (stereo not given) was 14.3 min; that for `Cc1ccc(-c2nc(-c3ccc(-c4ccccc4)cc3)[nH]c2-c2ccccc2)cc1C` was 15 min. Consider `c1ccc(Cn2c3ccccc3n3c(Nc4ccccc4)nnc23)cc1`, for which the LC retention time stood at 12.7 min. Turning to `CNC1C(OC2OC(CO)C(N)C(O)C2O)OC2CC(N)C(OC3C(N)CC(N)C(O)C3O)OC2C1O` (stereo not given), the LC retention time is 8.39 min. Turning to `CCOC(=O)CNc1ccccc1`, the LC retention time turned out to be 12.4 min. The value for `COC(=O)CC1CN=C(N2CCCCC2)NC1=O` (stereo not given) was 7.95 min. The value for `O=C(CCCCCN1C(=O)c2ccccc2C1=O)Nc1cccc(C(=O)O)c1` was 11.6 min; that for `CN1CCC23c4c5ccc(OC6OC(C(=O)O)C(O)C(O)C6O)c4OC2C(O)C=CC3C1C5` (stereo not given) was 6.59 min; that for `CN(c1ccccc1)c1nc(-n2ccnc2)nc(-n2ccnc2)n1` was 11.3 min. The value for `O=C(O)CC(NC(=O)OCc1ccccc1)C(=O)O` (stereo not given) was 9.01 min; that for `CC(CCc1ccccc1)NCc1ccco1` (stereo not given) was 9.89 min; that for `Cn1c(=O)c2cc(C(=O)O)ccc2n(C)c1=O` was 8.5 min. Turning to `CNC(=O)CC1Nc2ccccc2NC1=O` (stereo not given), the LC retention time stood at 7.34 min.

Take `CCCCCCCCCCCCCC(N)=O`: the LC retention time turned out to be 19.7 min. The value for `O=C1NCCc2c1[nH]c1ccccc21` was 10.1 min; that for `Cc1cc2[nH]c(=O)[nH]c2cc1N` was 6.14 min. Consider `CN(C)CCN(C)CCN(C)C`, for which the LC retention time is 6.9 min.

Take `Cc1cc(C)cc(-c2nnc(-c3ccc(-c4ccccc4)cc3)o2)c1`: the LC retention time came out at 20.5 min.

For `CC12CCC(O)CC1=CCC1C2CCC2(C)C(N)CCC12` (stereo not given), the LC retention time came to 8.88 min. The value for `COC(=O)C(N)c1ccccc1` (stereo not given) was 7.62 min; that for `Cc1c[n+](C)c(C)cc1-c1ccccc1` was 9.13 min.

For the compound `CC(=O)Oc1ccccc1C(=O)NC(C)(C)C`, the LC retention time turned out to be 11.2 min. The value for `CCOC(N)=O` was 4.72 min; that for `O=C(O)C1(c2ccccc2)CCCCN1` (stereo not given) was 6.67 min. The value for `O=C(NN=Cc1ccco1)c1ccccc1` was 9.65 min; that for `Cc1ccc(OC(=O)CCC(=O)N2CCN(C(=O)CCC(=O)Oc3ccc(C)cc3)CC2)cc1` was 14.3 min; that for `C#CC(C)(CC)NC(=O)C(=Cc1ccccc1)NC(=O)c1ccccc1` (stereo not given) was 13.5 min. The value for `NC1CCCCC1` was 7.63 min; that for `CCCCCCCCSCCSC(=N)N` was 12.7 min. For the compound `CCN(CCCc1ccccc1)CCCc1ccccc1`, the LC retention time was found to be 12.5 min. The value for `c1cncc(-c2nnco2)c1` was 6.78 min; that for `CC(C)N1CCNCC1` was 6.94 min. On to `O=C(O)CCCCC1SCC2NC(=O)NC21` (stereo not given), for which the LC retention time was 7.67 min. The value for `CC1(C)CC(NCC(=O)NC2CC(C)(C)NC(C)(C)C2)CC(C)(C)N1` was 7.71 min.

For the compound `S=C(NCCc1c[nH]c2ccccc12)Nc1ccccc1`, the LC retention time is 13.2 min. In the case of `Cc1ccc(C(=O)NC(=Cc2ccc(C(C)C)cc2)C(=O)NCc2cccnc2)cc1`, the LC retention time amounted to 11.9 min.

As for `CCNc1ccccc1`, the LC retention time was found to be 7.68 min. The value for `Cc1sc(C)c(CNCC(C)C)c1CNCC(C)C` was 8.93 min; that for `CCNc1ccccc1C(=O)O` was 10.8 min. The value for `C=CCN(C)CC=C` was 6.98 min. Take `COc1ccc2c(=O)c(C)c(-c3ccccc3)oc2c1CN(C)C`: the LC retention time was found to be 10.1 min. The value for `Cc1ccc(C=C2CN(C)CC(=Cc3ccc(C)cc3C)C2=O)c(C)c1` was 13.1 min; that for `COc1ccc2c(c1C)CCC1=C(C)C(=O)CCC12C` (stereo not given) was 17 min; that for `O=C(O)c1c2ccccc2nc2ccccc12` was 5.86 min. With `NC1=NC(=Nc2ccc(N3CCOCC3)cc2)c2ccccc21`, the LC retention time amounted to 9.27 min. The value for `O=C(CC1NC(=O)N(C2CCCCC2)C1=O)NCCc1c[nH]c2ccccc12` (stereo not given) was 12.1 min; that for `O=C(NN=Cc1ccccc1)c1ccncc1` was 8.96 min. As for `CCOc1cc(C(=O)Nc2ccc(OC)c(OC)c2)cc(OCC)c1OCC`, the LC retention time was determined as 14.4 min. The value for `Cc1[nH]c2ccccc2c1CCNC(=O)C1CCCN1C(=O)Nc1ccccc1` (stereo not given) was 12 min; that for `c1ccc(C(NCc2cccs2)c2ccccc2)cc1` was 11.8 min. On to `CCN(CC)CCCC(C)N` (stereo not given), for which the LC retention time is 7.05 min. `CCCCNC`: the LC retention time came out at 7.29 min.

In the case of `Cc1cc(C=O)c(C)n1C1CCCCC1`, the LC retention time was determined as 14.4 min. The value for `NCCN1CCCCC1` was 6.98 min; that for `COc1cccc(C2(O)CCCCC2CN(C)C)c1` (stereo not given) was 9.38 min.

Take `COc1ccc(C(=O)NCC(=O)NN)cc1OC`: the LC retention time came to 7.29 min.

Source of the values: the RepoRT retention time repository.
